Data as given in paper PMC4382154, “Screening of the Pan-African Natural Product Library Identifies Ixoratannin A-2 and Boldine as Novel HIV-1 Inhibitors” (PLoS ONE, 2015).
Where two headings read alike, the source gives them in different places.

Legend:
Format in all cases: cell-based
HIV-1NL4-3 = assay: microbe, parasite or virus in culture; conditions: for percent GFP-positive (HIV-infected) cells: 100 μM; for selectivity index (SI): CC50 over EC50 in CEM-GXR cells; for EC50: read-out: HIV-1NL4-3 inhibition (EC50)
Protocol: (§1) CEM-GXR cells are an immortalized CD4+ T-lymphocyte line engineered that naturally express the HIV-1 coreceptor CXCR4 and have been further engineered to express the HIV-1 co-receptor CCR5 and a Tat-driven LTR-GFP expression cassette. As such, intracellular GFP expression indicates HIV-1 infection. Cultures of 10^5 CEM-GXR cells were seeded into 96-well plates with RPMI-1640 media (Sigma) supplemented with penicillin/streptomycin plus 20% fetal calf serum (R20+), infected with HIV-1 at a multiplicity of infection of 0.03 (to achieve 3% infected cells on Day 2), and incubated at 37°C and 5% CO2. 24 hours later, cells were pelleted at 750 g and resuspended in R20+ containing compound or 0.1% DMSO. […] Cells were then incubated at 37°C and 5% CO2 for an additional 72 h. 5,000 cells from each culture were measured for cell toxicity and GFP expression by flow cytometry. Flow cytometry data were analyzed using FlowJo v. 8.8.7 software (FlowJo LLC, Ashland, OR). […] Background GFP expression in uninfected cultures was set at 0.05% GFP-positive cells. For each experiment, all data points were obtained in triplicate. All data are reported as the mean ± s.e.m. from at least 3 independent experiments performed with different virus stocks and/or performed on different days. However, all experiments that compare HIV-1NL4-3 and mutant HIV-1 were performed in parallel. EC50 and CC50 values for each compound were calculated from at least four concentrations. Statistical analyses were performed using Student’s unpaired t test, with a p value < 0.05 plus a Bonferroni correction to adjust for multiple comparisons considered significant.
To assess the effects of these eight compounds on cell viability and HIV-1 replication, we infected a GFP-reporter CEM CD4+ T cell line (CEM-GXR) with the NL4-3 strain of HIV-1 (HIV-1NL4-3). Briefly, cells were infected with HIV-1NL4-3 at a multiplicity of infection of 0.03 (Day 0), followed by removal of HIV-1 and addition of compound (or 0.1% DMSO vehicle control) 24 hours later (Day 1) and incubation for an additional 72 hours to allow HIV-1 spread (Days 2–4). On Days 2 and/or 4, the percent HIV-1 infected (i.e., GFP-expressing) cells was measured by flow cytometry. Cell viability was assessed by measuring the percentage of cells displaying normal forward- and side-scatter parameters in drug-treated, HIV-1 infected cultures compared to 0.1% DMSO-treated, HIV-1 infected control cultures. […] HIV-1NL4-3 replication was unaffected by the presence of 0.1% DMSO vehicle control (Fig. 2B).

HIV-1Δvpu = HIV-1Δvpu replication in CEM-GXR cells; conditions: for fold less effective at inhibiting HIV-1Δvpu compared to HIV-1NL4-3: 75 μM, CEM-GXR cells; for EC50: Human immunodeficiency virus 1, CEM-GXR, 96 h, read-out: EC50 HIV-1Δvpu
Protocol: (§2) HIV-1Δvpu was constructed by digesting plasmid p210-13 3’ Δ-vpu with EcoRI and NheI enzymes. The resulting DNA fragment was then ligated into wild-type pNL4-3 plasmid digested with the same enzymes. HIV-1Δvpu and HIV-1NL4-3 viral stocks were prepared by transfection of HEK-293T cells, as previously described. Patient plasma-HIV-1 RNA sequences were analyzed for resistance mutations using the HIV Drug Resistance Database Genotype Resistance Interpretation Algorithm (hivdb.stanford.edu). Recombinant HIV-1NL4-3 expressing patient-derived HIV-1 sequences harboring resistance mutations to protease and reverse transcriptase inhibitors (HIV-1PR+RT), reverse transcriptase inhibitors (HIV-1RT), and integrase inhibitors (HIV-1INT) were generated by homologous recombination following co-transfection as reported.
as §1
(§3) To investigate the mechanisms by which ixoratannin A-2 and boldine may block HIV-1 replication, we used a previously-reported HIV-1NL4-3 strain lacking the Vpu coding region (HIV-1Δvpu). We also constructed recombinant HIV-1NL4-3 strains harboring protease, reverse transcriptase, and/or integrase sequences of HIV-1 strains from patients who had developed resistance to the protease inhibitor Indinavir (IND), the non-nucleoside reverse transcriptase inhibitor Efavirenz (EFV), and/or the integrase inhibitor Raltegravir (RAL) (denoted HIV-1PR+RT, HIV-1RT, and HIV-1INT, respectively). Re-sequencing of the recombinant viruses confirmed the presence of multiple mutations known to confer resistance to IND, EFV, and/or RAL (Table 2).

HIV-1PR+RT = HIV-1PR+RT replication in CEM-GXR cells; conditions: for HIV-1PR+RT replication fold higher than HIV-1NL4-3: 75 μM; for EC50: Human immunodeficiency virus 1, CEM-GXR, 96 h, read-out: EC50 HIV-1PR+RT
Protocol: as §2, §1, §3

HIV-1INT = HIV-1INT replication in CEM-GXR cells; conditions: for EC50: Human immunodeficiency virus 1, CEM-GXR, 96 h, read-out: EC50 HIV-1INT
Protocol: as §2, §1, §3

[1] = system: HCV J4(1b)/JFH1(2a) chimera; assay: HCV replication assay in Huh-7.5 cells (NS5A flow cytometry); conditions: Hepatitis C virus, Huh7.5, 72 h
Protocol: The intergenotypic chimeric HCV used in this study—Bi-Gluc-J4(1b)/JFH1(2a) containing cell culture adaptive mutations in NS2 (T2996C) and NS3 (A4827T)—was previously described and subsequently modified to express Gaussia luciferase in the first cistron. HCV stocks used for infection were generated by electroporation of in vitro transcribed RNA into Huh-7.5.1 cells and pooling of supernatants harvested between 60–96 hr post-electroporation. HCV infectivity was determined by limiting dilution assay as previously described.
HCV cell culture was performed as described previously. Briefly, 4*10^4 Huh-7.5 cells were seeded into 24-well plates and incubated at 37°C and 5% CO2 overnight. Cells were then infected with HCV (multiplicity of infection = 0.3) for 6 hours, followed by removal of HCV and incubation with fresh medium containing compounds at stated concentrations. Cultures were then incubated for 72 hours, with no more than 0.1% DMSO present in culture medium. Cells were then trypsinized, resuspended in culture medium, and stained with the 9E10 alexa-fluor-conjugated antibody to NS5A [27]. Cells were fixed and analyzed for NS5A fluorescence by flow cytometry, and data were analyzed using FlowJo software. […] For each culture, NS5A fluorescence was determined as the percent gated cells relative to percent gated cells in infected cultures plus 0.1% DMSO. All experiments were performed in at least duplicate in at least two independent experiments.
We therefore assessed the effects of ixoratannin A-2, boldine, and BIT-225 on replication of HCV, which also encodes a viral ion channel and protease. Using an established cell culture system, Huh-7.5 cells were infected with an intergenotypic chimera between the J4 (genotype 1b) and JFH1 (genotype 2a) strain of HCV for 6 hours, followed by incubation with fresh medium containing compounds at defined concentrations. Infected cells were then incubated for an additional 72 hours. NS5A expression, a marker of HCV infection, was then detected by flow cytometry.

[2] = concentrations up to 75 or 100 μM, CEM-GXR cells
[3] = read-out: inhibition of HCV replication

SMILES | percent GFP-positive (HIV-infected) cells (HIV-1NL4-3; Day 2, HIV-1NL4-3-infected CEM-GXR cells (infected control 3.14)) | percent GFP-positive (HIV-infected) cells (HIV-1NL4-3; Day 4, HIV-1NL4-3-infected CEM-GXR cells (infected control 10.80)) | selectivity index (SI) (HIV-1NL4-3) | EC50 (HIV-1NL4-3; Human immunodeficiency virus 1, CEM-GXR, 96 h) | fold less effective at inhibiting HIV-1Δvpu compared to HIV-1NL4-3 (HIV-1Δvpu) | EC50 (HIV-1Δvpu) | HIV-1PR+RT replication fold greater vs. HIV-1NL4-3 (HIV-1PR+RT; 25 μM, CEM-GXR cells) | HIV-1PR+RT replication fold higher than HIV-1NL4-3 (HIV-1PR+RT; CEM-GXR cells) | EC50 (HIV-1PR+RT) | HIV-1PR+RT replication fold increased vs. HIV-1NL4-3 (HIV-1PR+RT; concentration not stated) | inhibition of HIV-1PR+RT (HIV-1PR+RT; [2]) | EC50 (HIV-1INT) | inhibition of HIV-1INT (HIV-1INT; [2]) | inhibition at 50 µM [1, 3] | EC50 (HIV-1NL4-3; Human immunodeficiency virus 1, 96 h, CEM-GXR cells, Day 4) | HIV-1INT replication fold higher than HIV-1NL4-3 (HIV-1INT; 75 μM, CEM-GXR cells) | EC50 ([1]; read-out: EC50 HCV replication) | inhibition at 30 µM [1, 3]
COc1cc2c(cc1O)C[C@H]1c3c(cc(O)c(OC)c3-2)CCN1C [boldine] | 2.17% | 4.09% | 4.1 | 50.2 µM | 1.3 fold | > 100 µM | 1.4 fold | 1.5 fold | > 100 µM | 1.4 fold | < 50% | > 100 µM | < 50% | 36% | – | – | – | –
Oc1cc(O)c2c(c1)OC1(c3ccc(O)c(O)c3)Oc3c4c(c5c(c3C2C1O)OC1(c2ccc(O)c(O)c2)Oc2cc(O)cc(O)c2C5C1O)OC(c1ccc(O)c(O)c1)C(O)C4 (stereo not drawn) [ixoratannin A-2] | – | – | 1.7 | – | 1.4 fold | 52 µM | – | 1.5 fold | 36.4 µM | – | – | 38.4 µM | – | – | 34.4 µM | 1.5 fold | 23 µM | > 50%
